Measurements taken from ChEMBL document CHEMBL3879905, “Methods of using macrocyclic modulators of the ghrelin receptor” (2013).
The source made the active and inactive calls. No cut-off for these calls is given here.

What follows are molecules tested on Rattus norvegicus (assay: Induction of gastric emptying of high caloric meal in Wistar rat gastroparesis model at 0.08 to […] mg/kg, iv after 60 mins). Settings: Stomach.
Type: functional, organism-based

| Compound | Activity |
| --- | --- |
| C[C@@H]1CN[C@@H](C2CC2)C(=O)N(C)[C@H](C)C(=O)N[C@H](Cc2ccc(Cl)cc2)C(=O)NCCCc2ccccc2O1 | Active |
| C[C@@H]1CN[C@@H](C2CC2)C(=O)N(C)[C@H](C)C(=O)N[C@H](Cc2ccc(F)cc2)C(=O)NCCCc2ccc(F)cc2O1 | Active |
| CC(C)C[C@@H]1NCCOc2ccccc2/C=C\CNC(=O)[C@H](Cc2cccc(Cl)c2)NC(=O)C2(CCCC2)NC1=O | Active |
| C[C@@H]1C(=O)N[C@H](Cc2ccc(Cl)cc2)C(=O)NCCCc2ccccc2OCCN[C@@H](C2CC2)C(=O)N1C | Active |
| C[C@@H]1C(=O)N[C@H](Cc2ccccc2)C(=O)NCCCc2ccc3c(c2)OC(CC3)CN[C@@H](C2CC2)C(=O)N1C (some centres undefined) | Active |
| C[C@@H]1C(=O)N[C@H](Cc2ccc(F)cc2)C(=O)NCCCc2ccc(F)cc2OCCN[C@@H](C2CC2)C(=O)N1C | Active |
| C[C@@H]1CN[C@@H](C2CC2)C(=O)N(C)[C@H](C)C(=O)N[C@H](Cc2ccc(Cl)cc2)C(=O)NCCCc2ccc(F)cc2O1 | Active |

Species: Homo sapiens
Experiment: Selectivity for human GSHR1a over human motilin receptor
Settings: not given

| Selectivity ratio | Compound |
| --- | --- |
| 35 | CC[C@H](C)[C@@H]1NCCCCCCCCNC(=O)[C@H](Cc2cccc(Cl)c2)NC(=O)C2(CCCC2)NC1=O |
| > 159 | CC[C@H](C)[C@@H]1NCCOc2ccccc2/C=C\CNC(=O)[C@H](Cc2ccc(Cl)cc2)NC(=O)C2(CCOC2)NC1=O (some centres undefined) |
| > 1000 | CC[C@H](C)[C@@H]1NCCOc2ccccc2CCCNC(=O)[C@@H](Cc2cccs2)NC(=O)[C@@H](C)N(C)C1=O |
| > 1700 | CC(C)C1NCCOc2ccccc2/C=C\CNC(=O)C(Cc2ccccc2)NC(=O)C(C)N(C)C1=O (centres undefined) |
| 4300 | C[C@@H]1C(=O)N[C@H](Cc2ccccc2)C(=O)NCCCc2ccccc2OCCN[C@@H](C(C)(C)C)C(=O)N1C |
| > 3300 | CC[C@H](C)[C@@H]1NCCOc2ccccc2/C=C\CNC(=O)[C@@H](Cc2ccccc2)NC(=O)[C@@H](C)N(C)C1=O |
| > 800 | CC[C@H](C)[C@@H]1NCCCc2ccccc2/C=C\CNC(=O)[C@@H](Cc2ccccc2)NC(=O)[C@@H](C)N(C)C1=O |
| 13000 | CC[C@H](C)[C@@H]1NCCOc2ccccc2CCCNC(=O)[C@@H](Cc2cccc3ccccc23)NC(=O)[C@@H](C)N(C)C1=O |
| 714 | C[C@@H]1C(=O)N[C@H](Cc2ccc(F)cc2)C(=O)NCCCc2ncccc2OCCN[C@@H](C2CC2)C(=O)N1C |
| > 100 | CC[C@H](C)[C@@H]1NCCOc2ccccc2CCCNC(=O)[C@@H](Cc2ccccc2)NC(=O)[C@@H](C)N(C)C1=O |
| 346 | CC1(C)NC(=O)C2(CCCC2)NCCOc2ccccc2/C=C\CNC(=O)[C@H](Cc2cccc(Cl)c2)NC1=O |
| 30000 | CC[C@H](C)[C@@H]1NCCOc2ccccc2CCCNC(=O)[C@@H](Cc2ccccc2Cl)NC(=O)[C@@H](C)N(C)C1=O |
| 1040 | CC(C)C[C@@H]1NCCOc2ccccc2/C=C\CNC(=O)[C@H](Cc2ccccc2Cl)NC(=O)C2(CCCC2)NC1=O |
| 71 | CCC[C@@H]1NCCOc2ccccc2CCCNC(=O)[C@@H](Cc2c[nH]c3ccccc23)NC(=O)CN(C)C1=O |
| 74 | CC[C@H](C)[C@@H]1NCCOc2ccc(F)cc2CCCNC(=O)[C@H](Cc2cccc(Cl)c2)NC(=O)C2(CCCC2)NC1=O |
| 3010 | CCC[C@@H]1NCCOc2ccccc2CCCNC(=O)[C@@H](Cc2ccccc2)NC(=O)[C@H](C)N(C)C1=O |
| 100 | CC[C@H](C)[C@@H]1NCCOc2ccc(C(=O)O)cc2CCCNC(=O)[C@@H](Cc2ccccc2)NC(=O)[C@@H](C)N(C)C1=O |
| 4900 | CC[C@H](C)[C@@H]1NCCOc2ccccc2CCCNC(=O)[C@@H](Cc2ccc3ccccc3c2)NC(=O)[C@@H](C)N(C)C1=O |
| 3400 | CCC[C@@H]1NCCOc2ccccc2/C=C\CNC(=O)[C@@H](Cc2ccccc2)NC(=O)[C@@H](C)N(C)C1=O |
| > 1700 | CC(C)[C@@H]1NCCOc2ccccc2/C=C\CNC(=O)[C@H](Cc2ccccc2)NC(=O)[C@@H](C)N(C)C1=O |

| Selectivity ratio | Compound |
| --- | --- |
| 1080 | CC(C)C[C@@H]1NCCOc2ccccc2/C=C\CNC(=O)[C@H](Cc2cccc(Cl)c2)NC(=O)C2(CCCC2)NC1=O |
| 300 | CC[C@H](C)[C@@H]1NC[C@H](C)Oc2ccccc2CCCNC(=O)[C@H](Cc2cccc(Cl)c2)NC(=O)C2(CCCC2)NC1=O |
| 1700 | CC1COc2ccccc2CCCNC(=O)[C@@H](Cc2ccc(F)cc2)NC(=O)[C@@H](C)N(C)C(=O)[C@H](C2CC2)N1 (some centres undefined) |
| 450 | C[C@H]1NC(=O)C2(CCCC2)NCCOc2ccccc2/C=C\CNC(=O)[C@H](Cc2cccc(Cl)c2)NC1=O |
| > 7100 | CC[C@H](C)[C@@H]1NCCOc2ccccc2CCCNC(=O)[C@@H](Cc2ccc(OC)cc2)NC(=O)[C@@H](C)N(C)C1=O |
| 3700 | CC[C@H](C)[C@@H]1NCCOc2ccccc2CCCNC(=O)[C@@H](Cc2ccccc2)NC(=O)[C@@H](C)N(CC)C1=O |
| 450 | C[C@H]1C(=O)N[C@@H](Cc2ccc(F)cc2)C(=O)NC[C@H]2C[C@@H]2c2ccccc2OCCN[C@H](C2CC2)C(=O)N1C |
| > 7700 | CC[C@H](C)[C@@H]1NCCOc2ccccc2CCCNC(=O)[C@@H](Cc2ccc(F)cc2)NC(=O)[C@@H](C)N(C)C1=O |
| 400 | CCC(C)[C@H]1NCCOc2ccccc2[C@H]2C[C@@H]2CNC(=O)[C@H](Cc2cccc(Cl)c2)NC(=O)C2(CCCC2)NC1=O (some centres undefined) |
| 2500 | C[C@@H]1C(=O)N[C@H](Cc2ccc(F)cc2)C(=O)NCCCc2ccc(F)cc2OCCN[C@@H](C2CC2)C(=O)N1C |
| 250 | C[C@@H]1C(=O)N[C@H](Cc2ccc(F)cc2)C(=O)NCCCc2cc(NS(C)(=O)=O)ccc2OCCN[C@@H](C2CC2)C(=O)N1C |
| 2500 | C[C@@H]1C(=O)N[C@H](Cc2ccccc2)C(=O)NCCCc2ccccc2OCCN[C@@H](C2CC2)C(=O)N1C |
| 200 | CC(C)C[C@@H]1NCCOc2ccccc2/C=C\CNC(=O)[C@H](Cc2ccccc2)NC(=O)C2(CCCC2)NC1=O |
| 142 | CCCC[C@@H]1NCCOc2ccccc2CCCNC(=O)[C@@H](Cc2ccccc2)NC(=O)CN(C)C1=O |
| 117 | CC(C)[C@@H]1NCCOc2ccccc2CCCNC(=O)[C@H](Cc2ccccc2)NC(=O)C2(CCCC2)NC1=O |
| 3040 | CC[C@H](C)[C@@H]1NCCOc2ccccc2CCCNC(=O)[C@@H](Cc2cccc(Cl)c2)NC(=O)[C@@H](C)N(C)C1=O |
| 28 | CC[C@H](C)[C@@H]1NCCCCCCCCNC(=O)[C@@H](Cc2ccccc2)NC(=O)[C@@H](C)N(C)C1=O |
| > 5500 | C[C@@H]1C(=O)N[C@H](Cc2ccc(Cl)cc2Cl)C(=O)NCCCc2ccccc2OCCN[C@@H](C2CC2)C(=O)N1C |
| 222 | O=C1NC/C=C/c2ccccc2OCCNC2(CCCC2)C(=O)NC2(CCCC2)C(=O)N[C@H]1Cc1ccccc1 |

| Compound | Selectivity ratio |
| --- | --- |
| CCC[C@@H]1NCCOc2ccccc2CCCNC(=O)[C@@H](Cc2ccccc2)NC(=O)CN(C)C1=O | 304 |
| C[C@@H]1C(=O)N[C@H](Cc2ccc(O)c(C(C)(C)C)c2)C(=O)NCCCc2ccccc2OCCN[C@@H](C2CC2)C(=O)N1C | 21 |
| CCC[C@@H]1NCCOc2ccccc2CCCNC(=O)[C@@H](Cc2ccc(O)cc2)NC(=O)CN(C)C1=O | > 100 |
